The values that follow come from KR20140065554A, “안토시아닌을 포함하는 항염용 조성물” (대한민국(농촌진흥청장), priority 2012, dated 2014).

Common to all, as to format: cell-based
Experiment [1] deals with LPS-induced NO production in RAW 264.7 (RAW 264.7에서 LPS로 유도된 NO 생성). The experiment can be described thus: Inhibition of LPS-induced NO production in RAW 264.7. The settings on record: p<0.05.
In a further experiment the test system is HepG2. The experiment can be described thus: Protective effect against hydrogen peroxide (H2O2, 0.9 mM)-induced oxidative stress in HepG2. The settings on record: HepG2, H2O2 0.9mM, p<0.05.
Experiment [2] relates to LPS-induced NO production (LPS로 유도되는 NO의 생성). The experiment in a line: Anti-inflammatory effect assay of peak 2 anthocyanin: inhibition of LPS-induced NO production. The settings on record: p<0.05.

“Peonidin 3-p-hydroxybenzoyl sophoroside-5-glucoside [Peak 4]”: the “inhibition of LPS-induced NO production” value in experiment [1] is “유의적으로 저해하였다”.

Consider `COc1cc(-c2[o+]c3cc(O)cc(O[C@@H]4O[C@H](CO)[C@@H](O)[C@H](O)[C@H]4O)c3cc2O[C@@H]2O[C@H](COC(=O)/C=C/c3ccc(O)c(O)c3)[C@@H](O)[C@H](O)[C@H]2O[C@@H]2O[C@H](COC(=O)/C=C/c3ccc(O)c(O)c3)[C@@H](O)[C@H](O)[C@H]2O)ccc1O` (single isomer, unassigned) [Peak 12, Peonidin 3-(6", 6"'-dicaffeoyl sophoroside)-5-glucoside], for which, in the experiment on HepG2, the “cell protective effect against H2O2-induced oxidative stress” value is on record as “유의적인 세포 보호 효과를 보였다”.

For orientation: inhibition means the share of the control response that was lost under treatment. A higher inhibition goes with a response far below the control. On to `COc1cc(-c2[o+]c3cc(O)cc(O[C@@H]4O[C@H](CO)[C@@H](O)[C@H](O)[C@H]4O)c3cc2O[C@@H]2O[C@H](CO)[C@@H](O)[C@H](O)[C@H]2O[C@@H]2O[C@H](CO)[C@@H](O)[C@H](O)[C@H]2O)ccc1O` (single isomer, unassigned) [Peak 2, Peonidin-3-sophoroside-5-glucoside], for which the “inhibition of LPS-induced NO production” value in experiment [1] was “유의적으로 저해하였다”. This compound yielded an inhibition at 1 µM in experiment [2] (1uM) of 8%. In addition, in experiment [2] (10uM), the inhibition at 10 µM turned out to be 15%.
